Source: ChEMBL document CHEMBL5465560, “Selectivity Literature for EUbOPEN Chemogenomic Library” (2024)

Assays:
[1] = target: Cyclin-dependent kinase 2/cyclin A (Homo sapiens) (UniProt P24941+P20248+P78396); test: (§1) Selectivity interaction (Millipore kinase profiler) EUB0000124b CDK2; type: protein-complex assay; settings: at 10 µM
[2] = target: Cyclin-dependent kinase 2/cyclin E (Homo sapiens) (UniProt P24864+P24941+O96020); test: as §1; type: protein-complex assay; settings: at 10 µM
[3] = target: T1, Serine/threonine-protein kinase 17A (Homo sapiens) (UniProt Q9UEE5); test: Selectivity interaction (KinomeScan (DiscoverX)) EUB0000618a STK17A; settings: at 10 µM
T1 sequence (whole entry): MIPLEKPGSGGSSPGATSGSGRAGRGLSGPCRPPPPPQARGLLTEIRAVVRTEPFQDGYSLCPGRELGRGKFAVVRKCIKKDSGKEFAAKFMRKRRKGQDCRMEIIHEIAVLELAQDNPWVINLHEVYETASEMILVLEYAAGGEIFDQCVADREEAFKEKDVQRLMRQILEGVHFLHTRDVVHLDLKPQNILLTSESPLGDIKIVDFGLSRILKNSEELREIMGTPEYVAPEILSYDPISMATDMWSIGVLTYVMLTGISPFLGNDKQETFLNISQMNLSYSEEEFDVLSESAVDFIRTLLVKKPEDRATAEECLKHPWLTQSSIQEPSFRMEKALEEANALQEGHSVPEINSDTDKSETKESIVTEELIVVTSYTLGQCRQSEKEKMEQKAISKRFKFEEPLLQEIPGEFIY

[4] = target: T2, Phosphatidylinositol 5-phosphate 4-kinase type-2 gamma (Homo sapiens) (UniProt Q8TBX8); test: Selectivity interaction (KinomeScan (DiscoverX)) EUB0000618a PIP4K2C; settings: at 10 µM
T2 sequence (whole entry): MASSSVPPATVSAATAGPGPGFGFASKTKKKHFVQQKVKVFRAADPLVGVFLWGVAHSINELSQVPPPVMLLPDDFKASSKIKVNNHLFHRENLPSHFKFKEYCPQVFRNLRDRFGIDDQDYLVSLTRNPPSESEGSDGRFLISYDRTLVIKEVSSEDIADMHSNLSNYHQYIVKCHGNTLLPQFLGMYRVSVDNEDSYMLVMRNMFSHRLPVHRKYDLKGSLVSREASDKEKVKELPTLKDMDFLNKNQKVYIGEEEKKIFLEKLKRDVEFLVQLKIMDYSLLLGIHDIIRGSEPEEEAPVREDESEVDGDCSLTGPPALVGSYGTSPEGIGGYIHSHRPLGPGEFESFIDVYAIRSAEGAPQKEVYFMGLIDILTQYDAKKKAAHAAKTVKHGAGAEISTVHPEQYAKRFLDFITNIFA

[5] = target: Phosphatidylinositol 4,5-bisphosphate 3-kinase catalytic subunit gamma isoform (Homo sapiens) (UniProt P48736); test: Selectivity interaction (ActivX KiNativ screen (ex vivo kinase selectivity in human PBMCs)) EUB0001619a PIK3CG; type: cell-based; settings: PBMC, at 1 µM
[6] = target: T3, Dual specificity mitogen-activated protein kinase kinase 6 (Homo sapiens) (UniProt P52564); test: Selectivity interaction (Kinase panel (Invitrogen)) EUB0000639a MAP2K6; settings: at 200 nM
T3 sequence (whole entry): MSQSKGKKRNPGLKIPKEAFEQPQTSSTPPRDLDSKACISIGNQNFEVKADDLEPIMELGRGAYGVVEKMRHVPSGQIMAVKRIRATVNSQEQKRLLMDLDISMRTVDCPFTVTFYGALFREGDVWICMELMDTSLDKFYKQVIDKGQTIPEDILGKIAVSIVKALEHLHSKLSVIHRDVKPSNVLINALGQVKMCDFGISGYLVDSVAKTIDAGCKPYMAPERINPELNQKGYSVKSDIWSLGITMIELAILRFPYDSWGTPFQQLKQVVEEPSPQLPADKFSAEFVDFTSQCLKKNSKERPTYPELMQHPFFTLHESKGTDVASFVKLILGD

[7] = target: T4, Uncharacterized serine/threonine-protein kinase SBK3 (Homo sapiens) (UniProt P0C264); test: Selectivity interaction (KinomeScan (DiscoverX)) EUB0000666a SBK3; settings: at 10 µM
T4 sequence (whole entry): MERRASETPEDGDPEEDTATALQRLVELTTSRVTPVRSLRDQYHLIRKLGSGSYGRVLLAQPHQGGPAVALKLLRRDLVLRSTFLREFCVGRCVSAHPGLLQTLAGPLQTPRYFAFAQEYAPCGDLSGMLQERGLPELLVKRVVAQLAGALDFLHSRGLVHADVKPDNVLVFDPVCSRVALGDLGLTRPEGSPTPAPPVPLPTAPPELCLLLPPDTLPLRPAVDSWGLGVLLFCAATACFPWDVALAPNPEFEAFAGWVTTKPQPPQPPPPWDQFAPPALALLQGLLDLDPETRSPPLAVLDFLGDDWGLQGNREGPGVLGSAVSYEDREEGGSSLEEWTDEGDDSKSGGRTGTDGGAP

[8] = target: T5, Inhibitor of nuclear factor kappa-B kinase subunit beta (Homo sapiens) (UniProt O14920); test: Selectivity interaction (KinomeScan (DiscoverX)) EUB0000695a IKBKB; settings: at 100 nM
T5 sequence (whole entry): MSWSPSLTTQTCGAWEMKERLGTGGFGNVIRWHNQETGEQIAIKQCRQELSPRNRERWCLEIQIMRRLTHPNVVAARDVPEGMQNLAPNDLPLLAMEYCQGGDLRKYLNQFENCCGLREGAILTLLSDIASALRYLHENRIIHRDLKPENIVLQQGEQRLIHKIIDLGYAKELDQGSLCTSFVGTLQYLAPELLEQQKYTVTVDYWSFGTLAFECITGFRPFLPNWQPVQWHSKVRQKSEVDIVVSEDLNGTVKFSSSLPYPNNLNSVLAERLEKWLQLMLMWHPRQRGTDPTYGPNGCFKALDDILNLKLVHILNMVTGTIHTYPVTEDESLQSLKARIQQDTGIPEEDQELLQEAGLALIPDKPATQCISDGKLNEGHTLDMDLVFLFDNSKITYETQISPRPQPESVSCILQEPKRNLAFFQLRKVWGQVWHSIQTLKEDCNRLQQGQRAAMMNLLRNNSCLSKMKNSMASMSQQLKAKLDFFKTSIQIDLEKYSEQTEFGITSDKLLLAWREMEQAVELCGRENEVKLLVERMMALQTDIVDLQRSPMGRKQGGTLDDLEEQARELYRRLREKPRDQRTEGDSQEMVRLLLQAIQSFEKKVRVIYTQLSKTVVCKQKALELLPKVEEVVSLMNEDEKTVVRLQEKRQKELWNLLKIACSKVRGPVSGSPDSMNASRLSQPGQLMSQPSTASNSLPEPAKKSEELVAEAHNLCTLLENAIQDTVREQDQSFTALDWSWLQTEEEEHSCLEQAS

Chain of Phosphatidylinositol 4,5-bisphosphate 3-kinase catalytic subunit gamma isoform (Homo sapiens) (P48736 whole entry, looked up, canonical isoform): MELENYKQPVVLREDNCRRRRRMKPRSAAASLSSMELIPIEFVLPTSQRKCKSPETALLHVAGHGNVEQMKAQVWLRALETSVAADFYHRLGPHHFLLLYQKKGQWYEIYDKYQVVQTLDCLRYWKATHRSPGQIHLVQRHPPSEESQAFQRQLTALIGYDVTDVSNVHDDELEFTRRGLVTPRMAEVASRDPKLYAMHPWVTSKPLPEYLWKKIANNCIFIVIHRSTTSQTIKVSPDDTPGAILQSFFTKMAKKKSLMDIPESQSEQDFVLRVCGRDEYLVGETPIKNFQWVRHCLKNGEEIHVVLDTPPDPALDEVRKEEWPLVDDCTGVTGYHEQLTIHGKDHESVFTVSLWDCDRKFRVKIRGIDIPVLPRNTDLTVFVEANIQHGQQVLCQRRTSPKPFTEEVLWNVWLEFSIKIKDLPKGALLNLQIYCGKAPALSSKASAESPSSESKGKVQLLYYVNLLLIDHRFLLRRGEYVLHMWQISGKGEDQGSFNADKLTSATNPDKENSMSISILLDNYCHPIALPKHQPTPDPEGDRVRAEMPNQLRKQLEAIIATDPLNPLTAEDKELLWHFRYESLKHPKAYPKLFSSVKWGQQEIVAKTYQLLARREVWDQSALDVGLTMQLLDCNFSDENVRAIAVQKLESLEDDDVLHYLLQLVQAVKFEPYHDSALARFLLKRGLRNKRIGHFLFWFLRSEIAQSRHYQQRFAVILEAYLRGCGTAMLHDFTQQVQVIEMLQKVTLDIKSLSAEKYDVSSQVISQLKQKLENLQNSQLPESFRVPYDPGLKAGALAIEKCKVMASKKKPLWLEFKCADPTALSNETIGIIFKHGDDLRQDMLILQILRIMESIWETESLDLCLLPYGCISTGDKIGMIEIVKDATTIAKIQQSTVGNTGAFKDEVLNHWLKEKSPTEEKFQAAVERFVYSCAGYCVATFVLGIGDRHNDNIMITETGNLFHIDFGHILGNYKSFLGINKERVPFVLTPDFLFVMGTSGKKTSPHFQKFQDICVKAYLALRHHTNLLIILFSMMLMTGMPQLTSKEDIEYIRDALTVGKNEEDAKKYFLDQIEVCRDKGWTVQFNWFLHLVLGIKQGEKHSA

## CC(=O)Nc1cccc(-n2c(=O)n(C3CC3)c(=O)c3c(Nc4ccc(I)cc4F)n(C)c(=O)c(C)c32)c1
[1]
  % of control: 101%
[2]
  % of control: 104%

## O[C@H]1CC[C@H](Nc2ncc3nc(Nc4c(F)cc(F)cc4F)n([C@H]4CCOC4)c3n2)CC1
[3]
  % of control: 100%
[4]
  % of control: 32%

## N#Cc1cccc(-c2c[nH]c3ncnc(N4CCOCC4)c23)c1
[5]
  % of inhibition: -6%

## CC[C@@H]1[C@H](F)C(=O)N[C@@H]1COc1nccc2cc(C(N)=O)c(OC)cc12 [ZIMLOVISERTIB]
[6]
  % of inhibition: 4.3%

## O=C(NOC[C@H](O)CO)c1ccc(F)c(F)c1Nc1ccc(I)cc1F
[7]
  % of control: 100%

## Cc1cc(F)c(C(=O)Nc2cccc(-c3nncn3C(C)C)n2)cc1-n1cnc(C2CC2)c1
[8]
  % of control: 100%
